According to patent US10442805B2, “Polymorphic forms of a hydrochloride salt of (S)-2-(1-(9H-purin-6-ylamino)propyl)-5-fluoro-3-phenylquinazolin-4(3H)-one” (GILEAD CALISTOGA LLC, priority 2013, dated 2019):

Experiments:
Assay type in all cases: physicochemical
[1] = Hydrate screen on the HCl salt: solubility in ethanol/water; conditions: ethanol/water mixture, aqueous with cosolvent or surfactant or cyclodextrin, thermodynamic from solid; for solubility at 5 days: solubility column beside XRPD after 5 days
Description: (§1) Polymorphic Form I of a hydrochloride salt of (S)-2-(1-(9H-purin-6-ylamino)propyl)-5-fluoro-3-phenylquinazolin-4(3H)-one, i.e., Compound of Formula (I), prepared according to the protocols described in Example 1 above was mixed with ethanol and water. XRPDs were taken on Days 5 and 21.

[2] = Hydrate screen on the HCl salt: solid form by XRPD in ethanol/water (effect of water on stability of Form I); conditions: for changes in XRPD in the hydrate screen: water/ethanol system
Procedure: (§2) XRPD patterns were collected at room temperature, using a PANalytical X'Pert MPD Pro Powder X-Ray Diffractometer configured with reflectance stage with spinning, data acquisition range: 2-40 degrees 2θ, Copper (Cu) anode; Kα1/Kα2 radiation; tube current 40 mA; tube tension 45 kV; automatic divergence and anti-scatter slits. Samples were prepared for analysis by distributing solid material as a thin layer on a silicon holder. Each holder was mounted on a reflectance/transmittance stage and rotated during data acquisition.
as §1

[3] = Form screen on the HCl salt: solid form by XRPD after suspension in solvent
Procedure: as §2, with “acquisition. […] After 7 days, a sample of the suspension was removed from the vial/flask, and the sample was centrifuged and filtered to separate the solids from the liquid in the sample. The isolated solids were characterized by XRPD (collected at room temperature). The filtrate was retained. After about 25 days, another sample was removed from the vial/flask, and the sample was centrifuged and filtered to separate the solids from the liquid in the sample. The isolated solids were characterized by XRPD (collected at room temperature).” for “acquisition.”

[4] = Dynamic vapour sorption (DVS); conditions: 25° C.
[5] = XRPD of solvate forms after drying or heating
Procedure: For Pattern 1, shown in FIGS. 14A and 15B, 50 mg of the hydrochloride salt of the Compound Formula (I) was suspended in propyl acetate (3.5 mL, 70 vol) and held at 50° C. for 15 minutes, after which 1.1 eq of 12M HCl (11.6 μL) was added and the sample slowly cooled from 50° C. to 5° C. at 0.1° C. per minute. The XRPD pattern shown in FIG. 14A was observed while the sample was wet. […] FIG. 14C depicts the XRPD pattern after further heating at about 145° C. for about 16 hours (Pattern 9′).
For the toluene solvate, shown in FIG. 20 (wet), 50 mg of the polymorphic Form I of a hydrochloride salt of the Compound of Formula (I) was treated with toluene (3.5 mL, 70 vols), producing a suspension at 50° C. This suspension was matured between 50° C. and room temperature (8 hours per cycle) for three days.

[6] = 114 mg in tetrahydrofuran (THF)
[7] = 117 mg in isopropyl acetate (IPAc)
[8] = 140 mg in ethyl acetate (EtOAc)
[9] = 149 mg in methyl ethyl ketone (MEK)
[10] = 150 mg in methyl t-butyl ether (MTBE)
[11] = 154 mg in 2-methyltetrahydrofuran (2-MeTHF)
[12] = 160 mg in dichloromethane (DCM)
[13] = 176 mg in methyl isobutyl ketone (MIBK)

`CC[C@H](Nc1ncnc2[nH]cnc12)c1nc2cccc(F)c2c(=O)n1-c1ccccc1` [(S)-2-(1-(9H-purin-6-ylamino)propyl)-5-fluoro-3-phenylquinazolin-4(3H)-one] showed a solubility at 21 days ([1]; Ethanol/water aw 0.2) of 60 mg/mL, a solubility at 5 days ([1]; Ethanol/water aw 0.2) of 26 mg/mL and a solubility at 21 days ([1]; Ethanol/water aw 0.3) of 33 mg/mL. For the same compound, the solubility at 5 days ([1]; Ethanol/water aw 0.3) was 47 mg/mL, the solubility at 21 days ([1]; Ethanol/water aw 0.4) was 66 mg/mL and the solubility at 5 days ([1]; Ethanol/water aw 0.4) was 57 mg/mL. The solubility at 21 days ([1]; Ethanol/water aw 0.5) was 93 mg/mL, the solubility at 5 days ([1]; Ethanol/water aw 0.5) was 72 mg/mL and the solubility at 21 days ([1]; Ethanol/water aw 0.6) was 183 mg/mL. The solubility at 21 days ([1]; Ethanol/water aw 0.7) was 223 mg/mL, the solubility at 21 days ([1]; Ethanol/water aw 0.8) was 174 mg/mL and the solubility at 21 days ([1]; Ethanol/water aw 0.9) was 44 mg/mL. For the same compound, the “XRPD after 5 days” value ([2]; Ethanol/water aw 0.2) was “Form I”, the “XRPD after 21 days” value ([2]; Ethanol/water aw 0.2) was “Form I” and the “XRPD after 5 days” value ([2]; Ethanol/water aw 0.3) was “Form I”. The “XRPD after 21 days” value ([2]; Ethanol/water aw 0.3) was “Form I”, the “XRPD after 5 days” value ([2]; Ethanol/water aw 0.4) was “Form I” and the “XRPD after 21 days” value ([2]; Ethanol/water aw 0.4) was “Form I”. For the same compound, the “XRPD after 5 days” value ([2]; Ethanol/water aw 0.5) was “Form I”, the “XRPD after 21 days” value ([2]; Ethanol/water aw 0.5) was “Form I” and the “XRPD after 5 days” value ([2]; Ethanol/water aw 0.6) was “Form I”. The “XRPD after 21 days” value ([2]; Ethanol/water aw 0.6) was “Form I”, the “XRPD after 5 days” value ([2]; Ethanol/water aw 0.7) was “Form I” and the “XRPD after 21 days” value ([2]; Ethanol/water aw 0.7) was “Form I”. The “XRPD after 5 days” value ([2]; Ethanol/water aw 0.8) was “Form I”, the “XRPD after 21 days” value ([2]; Ethanol/water aw 0.8) was “Form I” and the “changes in XRPD in the hydrate screen” value ([2]; all water activities except 0.9) was “no changes in XRPD”. For the same compound, the “changes in XRPD in the hydrate screen” value ([2]; water activity 0.9) was “converted some of the hydrochloride salt to polymorphic Form I of the free form”, the “XRPD after 7 days” value [3, 6] was “new” and the “XRPD after about 25” value [3, 6] was “Form IX”. For the same compound, the “XRPD after 7 days” value [3, 7] was “Form I”, the “XRPD after about 25” value [3, 7] was “Form I” and the “XRPD after 7 days” value ([3]; 119 mg in water) was “Form I”. For the same compound, the “XRPD after about 25” value ([3]; 119 mg in water) was “Form I”, the “XRPD after 7 days” value ([3]; 120 mg in acetonitrile (ACN)) was “Form I” and the “XRPD after about 25” value ([3]; 120 mg in acetonitrile (ACN)) was “Form I”. For the same compound, the “XRPD after 7 days” value ([3]; 125 mg in acetone) was “new”, the “XRPD after about 25” value ([3]; 125 mg in acetone) was “Form X” and the “XRPD after 7 days” value ([3]; 132 mg in 2-propanol) was “Form I”. For the same compound, the “XRPD after about 25” value ([3]; 132 mg in 2-propanol) was “mixture”, the “XRPD after 7 days” value [3, 8] was “Form I” and the “XRPD after about 25” value [3, 8] was “Form I”. For the same compound, the “XRPD after 7 days” value [3, 9] was “new”, the “XRPD after about 25” value [3, 9] was “Form VII” and the “XRPD after 7 days” value [3, 10] was “Form I”. For the same compound, the “XRPD after about 25” value [3, 10] was “Form I”, the “XRPD after 7 days” value [3, 11] was “Form V” and the “XRPD after about 25” value [3, 11] was “Form V”. For the same compound, the “XRPD after 7 days” value ([3]; 155 mg in methanol) was “Form I”, the “XRPD after about 25” value ([3]; 155 mg in methanol) was “Form I” and the “XRPD after 7 days” value ([3]; 157 mg in Ethanol) was “Form I”. For the same compound, the “XRPD after about 25” value ([3]; 157 mg in Ethanol) was “Form I”, the “XRPD after 7 days” value [3, 12] was “new” and the “XRPD after about 25” value [3, 12] was “Form VIII”. The “XRPD after 7 days” value ([3]; 163 mg in n-heptane) was “Form I”, the “XRPD after about 25” value ([3]; 163 mg in n-heptane) was “Form I” and the “XRPD after 7 days” value [3, 13] was “Form I”. For the same compound, the “XRPD after about 25” value [3, 13] was “Form VI”, the “XRPD after about 25” value ([3]; 10 g in 1-butanol) was “Form XIII” and the “XRPD after about 25” value ([3]; 10 g in 1-propanol) was “Form XII”. For the same compound, the “XRPD after about 25” value ([3]; 10 g in 2-propanol) was “Form XI” and the “DVS: mass change as a function of RH” value [4] was “minor mass increase”.
In the case of `CC[C@H](Nc1ncnc2[nH]cnc12)c1nc2cccc(F)c2c(=O)n1-c1ccccc1` [Pattern 1, (S)-2-(1-(9H-purin-6-ylamino)propyl)-5-fluoro-3-phenylquinazolin-4(3H)-one], the “XRPD pattern after drying” value ([5]; drying in a vacuum oven at about 25° C. for 6 days) is reported as “Pattern 9”.
In the case of `CC[C@H](Nc1ncnc2[nH]cnc12)c1nc2cccc(F)c2c(=O)n1-c1ccccc1` [Pattern 9, (S)-2-(1-(9H-purin-6-ylamino)propyl)-5-fluoro-3-phenylquinazolin-4(3H)-one], the “XRPD pattern after further heating” value ([5]; further heating at about 145° C. for about 16 hours) is reported as “Pattern 9′”.
For `CC[C@H](Nc1ncnc2[nH]cnc12)c1nc2cccc(F)c2c(=O)n1-c1ccccc1` [Toluene solvate, (S)-2-(1-(9H-purin-6-ylamino)propyl)-5-fluoro-3-phenylquinazolin-4(3H)-one], the XRPD upon drying ([5]; upon drying) was “mixture of Pattern 1 and Pattern 9′”.
